Source: patent US20260138981A1, “DIHYDROFOLATE REDUCTASE INHIBITORS FOR ANTI-BIOTIC RESISTANT INFECTIONS” (THE TRUSTEES OF PRINCETON UNIVERSITY, priority 2022, published 2026)

Columns and labels:
[1] = test system: P. aeruginosa PA14 nfxB T39P mutants; assay: Cross resistance of fluorofolin-resistant mutant; assay type: cell-based; settings: 2×MIC
From the text: NfxB is a transcriptional regulator protein that represses expression of the MexCD-OprN efflux pump.

[2] = test system: P. aeruginosa PA14; assay: MIC in LB Broth; assay type: cell-based; settings: Pseudomonas aeruginosa; P. aeruginosa PA14, compound alone
Procedure: The minimum inhibitory concentration is defined as the lowest concentration of antibiotic at which no visible growth was detected after 16 hours at 37° C. Overnight cultures were diluted 1:150 in LB Broth and added to a 96-well plate. Antibiotics were serially diluted 1:2 and added to columns of the 96-well plate and grown at 37° C. with continuous shaking. Cell growth was measured by optical density (OD600). MIC assays were performed in either BioTek Synergy HT (Winooski, VT) or Tecan InfiniteM200 Pro (Männedorf, CH) microplate readers.

[3] = test system: PA14 mutants with disruptions in mexA, mexB and oprM; assay: MIC against MexAB-OprM transposon mutants; assay type: cell-based, P. aeruginosa; settings: oprM transposon mutants vs wildtype PA14
Procedure: FIG. 1I is the minimum inhibitory concentration of fluorofolin or trimethoprim against transposon mutants for each component of the MexAB-OprM efflux pump. MIC against wildtype PA14 was calculated to control for each drug stock. MIC values are representative of two independent replicates.
P. aeruginosa PA14 transposon mutants were generated by the Ausubel Lab (http://ausubellab.mgh.harvard.edu/cgi-bin/pa14/home.cgi). The MICs of fluorofolin and TMP against strains with disrupted MexA, MexB, and OprM were determined as above and compared to the parental strain. As transposon mutants in MexB were represented twice in this collection, the MIC was confirmed across both mutant strains.

[4] = test system: folate metabolism in P. aeruginosa; assay: Metabolomics (LC-MS metabolite abundance); assay type: cell-based; settings: PA14, 2×MIC for 15 min, vs solvent control; P=0.0186 and 0.0196
Procedure: Metabolite abundance was quantified in comparison to the solvent only control. Data represents mean±SD for 3 biological replicates. P values were calculated using unpaired t-test using Prism 9 (P values≤0.05)
To test the ability of fluorofolin to inhibit P. aeruginosa DHFR in vivo, metabolomics were performed. As a positive control for DHFR inhibition, we turned to TMP.
Overnight P. aeruginosa PA14 cultures were diluted 1:150 in Gutnick Minimal Media and grown to early-mid exponential phase (OD600=0.4-0.6).
LC-MS analysis of metabolites was performed on Orbitrap Exploris 240 mass spectrometer coupled with hydrophilic interaction liquid chromatography (HILIC)^64. […] Flow rate was 0.15 mL/min, and column temperature was set at 25° C. […] The orbitrap resolution was 180,000 at m/z of 200. The maximum injection time was 200 ms, and the automatic gain control (AGC) target was 1000%. Raw mass spectrometry data were converted to mzXML format by MSConvert (ProteoWizard). Pick-peaking was done on El Maven (v0.8.0, Elucidata).

| Structure (SMILES) | resistance of nfxB T39P mutants [1] | MIC [2] | change of MIC in efflux pump mutants [3] | abundance of AICAR and dUMP [4] |
| --- | --- | --- | --- | --- |
| O=C(O)c1cn(C2CC2)c2cc(N3CCNCC3)c(F)cc2c1=O [ciprofloxacin] | cross-resistant |  |  |  |
| COc1cc(Cc2cnc(N)nc2N)cc(OC)c1OC [trimethoprim, reference compound] |  | 125 µg/mL | large reductions in MIC | significant upregulation |
